Like-named read-outs stand apart in the source and are kept apart here.
Columns and labels:
[1] = biological target: T1, PD-1/PD-L1 interaction (Homo sapiens, UniProt Q9NZQ7); assay: PD-1/PD-L1 ICB assay (Jurkat-ECs with CHO/TCRAct/PD-L1 cells, luciferase); format: cell-based
T1 construct: host or cells: CHO-K1 (CHO/TCRAct/PD-L1) and Jurkat effector cells
Procedure: After a successful optimization of the terphenyl compounds, the activity of the optimized molecules 7a and 8a–j in a cellular context was assessed. To this end, we first performed the PD-1/PD-L1 ICB assay. In this assay, T-cell receptor (TCR)-mediated activation of Jurkat effector cells (Jurkat-ECs) is reduced by the presence of PD-L1, exposed at the surface of CHO/TCRAct/PD-L1 cells (Figure 3A).
(§1) The functional assay of the blockade of PD-1/PD-L1 interaction in vitro (PD-1/PD-L1 Blockade Bioassay, Promega) was performed according to the manufacturer’s protocol. CHO/TCRAct/PD-L1 cells or CHO/TCRAct or CHO-K1 cells were seeded on 96-well white plates at the density of 10,000 cells/well and the next day overlaid with Jurkat T cells (20,000 cells/well) in the presence of increasing concentrations of the compounds with DMSO only as a control (the concentration of DMSO was kept constant at 0.1%) or atezolizumab, as a positive control, anti-PD-L1 monoclonal antibody (Selleckchem). The 2.5-fold dilutions of atezolizumab were prepared in the assay buffer (RPMI 1640 + 1% FBS) on the day of the assay. Activation of the Jurkat T cells, reflected by luciferase activity, was monitored by luminescence measurements after 6 h of incubation (37 °C, 5% CO2), and 20 min of additional incubation with the Bio-Glo assay reagent (Promega) at room temperature. The luminescence was read on a Spark microplate reader (Tecan). The data are presented as fold induction of the luminescence signal relative to either untreated (for atezolizumab) or DMSO-treated (for compound) cells. Data points represent mean ± SD values from three to five independent experiments. Half-maximal effective concentrations (EC50 values) were calculated from the Hill curve fitting to the experimental data using Origin Pro 2020 software (OriginLab).

[2] = Cytotoxicity assay toward Jurkat-ECs; format: cell-based; conditions: human, Jurkat-EC cells, SI csv
Procedure: The cytotoxicity of compounds was verified toward Jurkat-ECs since these cells provide the readout in the ICB assay and present a much higher degree of susceptibility to the compounds’ toxicity than CHO-K1 cells (not shown). Jurkat-ECs were seeded on 96-well transparent plates in the presence of increasing concentrations of the compounds with DMSO-treated cells as a control. The concentration of DMSO was kept constant (0.1%). After 48 h of incubation, a tetrazolium reagent, Biolog redox dye MIX MB (Biolog), was added according to the manufacturer’s protocol, and the culture plates were incubated for an additional 2 h (37 °C, 5% CO2). The absorbance was measured using a Spark microplate reader (Tecan) at 590 nm with 750 nm as a reference. The data are presented as Jurkat-EC survival relative to DMSO-treated control cells. Data points represent mean ± SD values from three independent experiments. Half-maximal effective concentrations (EC50 values) were calculated from the dose–response curve using OriginPro 2020 (OriginLab) software.

[3] = tested on: Jurkat-ECs alone or with CHO wt or CHO/TCRAct cells; assay: ICB assay control where PD-L1 is absent; format: cell-based; conditions: 6 h; Figure S1
Procedure: as §1, with “(OriginLab). […]” for “(OriginLab).”
of the Immune Checkpoint Blockade (ICB) assay, where 8h, 8i, and 8j were used to restore the activation of effector Jurkat-ECs. Jurkat-ECs were either kept alone, or contacted with one of the following cell lines: wild type CHO K1 cells (CHO wt), CHO K1 cells expressing TCR Activator (CHO/TCRAct), or CHO K1 cells expressing TCR Activator and […]. The cells were incubated with the indicated concentrations of the compounds for 6 hours and luminescence was measured as an indicator of TCR-dependent activation of Jurkat-ECs. The graphs present fold induction of the luminescence signal relative to DMSO-treated cells. […]

[4] = biological target: PD-1/PD-L1 complex (Homo sapiens, UniProt Q9NZQ7); assay: HTRF assay of PD-1/PD-L1 complex dissociation (CisBio); conditions: for remaining activity at 0.005 µM: 2 h;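 on all read-outs here: human PD-L1 at 5 nM with human PD-1 at 50 nM, TR-FRET signal read after 2 h at room temperature, background removed via negative control and scaled to positive control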
Procedure: HTRF was performed using the certified CisBio assay according to the manufacturer’s guidelines. The experiments were performed at 5 nM h-PD-L1 and 50 nM hPD-1 in the final formulation at 20 μL final volume in the well. To determine the half-maximal inhibitory concentration (IC50) of tested compounds, measurements were performed on two individual dilution series, unless states otherwise. After mixing all components according to the CisBio protocol, the plate was left for 2 h incubation at room temperature, followed by time-resolved fluorescence energy transfer (TR-FRET) measurement on Tecan Spark 20M. Collected data were background-subtracted on the negative control, normalized on the positive control, averaged, and fitted with normalized Hill’s equation to determine the IC50 value using Mathematica 12.

[5] = tested on: primary CD4+ and CD8+ T cells (PBMCs); assay: T-cell activation (TCA) assay, PBMCs with CHO/TCRAct/PD-L1 cells, flow cytometry; format: cell-based, human; conditions: 48 h; compounds 0.1, 0.5, 2.5 μM; mAbs 5 μg/mL
Procedure: A standard ICB assay relies on artificial Jurkat-ECs, which are surrogates of T-cells. To verify the potential of the compounds to reactivate the PD-L1-blocked primary T cells, a modified assay termed T-cell activation (TCA) was carried out.[32] In this assay, human primary peripheral blood mononuclear cells (PBMCs) are allowed to make contact with CHO/TCRAct/PD-L1 cells alone or in the presence of PD-1/PD-L1 blockers, and the activation of CD4^+ and CD8^+ T cell is monitored by flow cytometry.
Anticoagulant citrate dextrose-A-treated blood from healthy donors was purchased from the Regional Center of Blood Donation and Blood Therapy in Krakow, Poland. PBMCs were isolated from whole blood by density gradient centrifugation using Pancoll human separating solution (PAN-Biotech GmbH, Aidenbach, Germany). The separated cells were washed and resuspended in RPMI 1640 medium (Biowest) containing 10% FBS (Biowest). PBMCs were added at an amount of 3 × 10^5 to CHO, CHO/TCRAct, or CHO/TCRAct/PD-L1 cells preseeded on 24-well plates in the presence of either anti-PD-L1 mAbs (at the final concentration 5 μg/mL): durvalumab (Selleckchem), atezolizumab (Selleckchem), or avelumab (MedChemExpress) or tested compounds at the concentrations 0.1, 0.5, and 2.5 μM. Untreated cells were used as controls for antibody treatment, while DMSO-treated cells [0.1% (v/v)] were used as controls for compound treatment. The cells were incubated for 48 h (37 °C, 5% CO2) and then detached from the plates with TrypLe Select Enzyme (Thermo Fisher). PBMCs were stained for 20 min at room temperature with the antibodies: anti-CD4-FITC, anti-CD8-BV510, anti-CD69-APC, anti-CD25-PE, anti-HLA-DR-PerCP, and anti-PD1-PECy7 (Becton Dickinson Biosciences, BD). Following two washing steps, the cells were analyzed with a FACSCanto II cytometer. Data analysis was carried out with FlowJo software, followed by statistical significance calculations done with Origin Pro 2020 software (OriginLab). Statistical significance was analyzed with one-way analysis of variance (ANOVA), followed by the Fisher’s posthoc test: *p < 0.05, **p < 0.01, […].

[6] = tested on: PBMCs cocultured with CHO/TCRAct/PD-L1 cells; assay: Cytokine accumulation in culture media of the TCA assay (CBA Th1/Th2/Th17 kit); format: cell-based, human; conditions: TCA assay supernatants, four donors
Procedure: In addition to the expression of surface markers, the accumulation of immune-related cytokines in the culture media collected in the TCA assay was monitored with the cytometric bead array (CBA) human Th1/Th2/Th17 kit. […] Also, the levels of IL-6, IFN-γ, and IL-2 increased, but these increases were not statistically significant.
The concentration of the cytokines (IL-2, IL-4, IL-6, IL-10, IL-17A, IFN-γ, and TNFα) in supernatants was determined using the CBA Human Th1/Th2/Th17 kit (BD Biosciences), with data acquisition using the FACSCanto flow cytometer. The CBA beads were discriminated in FL-4 and FL-5 channels, while the concentration of specified cytokines was determined by the intensity of FL-2 fluorescence, using the respective standard reference curve and FCAP Array software (BD Biosciences). IL-4 was below the detection level and is not presented in the manuscript. Statistical significance was analyzed with one-way ANOVA using the Origin Pro 2020 software, followed by the Fisher’s posthoc test: *p < 0.05, **p < 0.01, […].

T1 sequence (Q9NZQ7 19-290): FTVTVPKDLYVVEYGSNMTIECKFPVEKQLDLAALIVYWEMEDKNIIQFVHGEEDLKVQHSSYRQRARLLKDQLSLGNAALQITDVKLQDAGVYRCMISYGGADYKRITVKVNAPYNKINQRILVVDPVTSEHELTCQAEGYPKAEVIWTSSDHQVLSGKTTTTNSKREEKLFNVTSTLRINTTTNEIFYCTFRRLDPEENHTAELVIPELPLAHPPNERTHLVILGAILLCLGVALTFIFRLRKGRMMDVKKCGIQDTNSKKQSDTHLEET
Sequence of PD-1/PD-L1 complex (Q9NZQ7 19-238 limits assumed, one chain of several): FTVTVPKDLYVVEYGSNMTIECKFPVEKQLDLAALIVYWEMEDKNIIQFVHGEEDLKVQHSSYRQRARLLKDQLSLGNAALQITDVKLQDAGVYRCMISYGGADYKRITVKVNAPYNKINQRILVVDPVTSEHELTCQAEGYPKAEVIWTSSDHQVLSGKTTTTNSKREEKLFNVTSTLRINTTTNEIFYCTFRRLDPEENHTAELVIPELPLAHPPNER

COc1cc(-c2cccc(-c3ccc4c(c3)OCCO4)c2Cl)ccc1CNCCNC(N)=O [8h, 1-(2-(((3′-(Benzo-1,4-dioxan-6-yl)-2′-chloro-3-methoxy-[1,1′-biphenyl]-4-yl)methyl)amino)ethyl)urea]
selectivity of PD-1/PD-L1-blocking activity versus cytotoxicity ([1]; EC50 (tox.) vs EC50 (bio.), Figure 3F): highest selectivity
EC50 ([1]; Jurkat-ECs with CHO/TCRAct/PD-L1, 6 h, SI csv, read-out: Bioactivity (EC50 in the ICB assay)): 2000 ± 370 nM
EC50 at 48 h [2]: 4140 ± 710 nM
activation of Jurkat-ECs where PD-L1 is absent [3]: requires the presence of PD-L1
remaining activity at 0.005 µM ([4]; read-out: % of undissociated complex at 5 nM): 6%
remaining activity at 0.005 µM ([4]; read-out: HTRF % of the undissociated complex at 5 nM): 6%
IC50 ([4]; HTRF, Table 4, <1.00 = limit of quantification reached): < 1 nM
numbers of PD-1-positive T cells [5]: significant increase

atezolizumab: therapeutic anti-PD-L1 monoclonal antibody, positive control
activation of Jurkat-ECs ([1]; 6 h, fold induction of luminescence): full activation of Jurkat-ECs is restored
accumulation of immune-related cytokines in culture media [6]: significantly increased levels of IL-17A, TNF-α, and IL-10
numbers of PD-1-positive T cells [5]: increases the expression of PD-1 on T-cells

Source: PMC8365601, “Terphenyl-Based Small-Molecule Inhibitors of Programmed Cell Death-1/Programmed Death-Ligand 1 Protein–Protein Interaction” (Journal of Medicinal Chemistry, 2021)
